Read-outs that look alike come from different tables or passages of the source.
Key:
human NK3 receptor [1] = target: T1, human NK3 receptor (Homo sapiens (Human), UniProt P29371); experiment: Human NK3 receptor binding assay at 1 uM; conditions: 1 μM test compound; [3H]SR142801, CHO cell membranes; read-out: percent inhibition at 1 μM
Protocol: Antagonist activity was evaluated at a concentration of 1 μM for a representative subset of test compounds, and the results were expressed as the percent inhibition at that concentration.
Each test compound was evaluated at a single concentration of 1 μM. […] The results are expressed as a percent of control specific binding ((measured specific binding/control specific binding)×100) obtained in the presence of the test compounds.

human NK3 receptor [2] = target: T1, human NK3 receptor; experiment: Human NK3 receptor binding assay at 10 μM; conditions: 10 μM test compound, [3H]SR142801, CHO cell membranes
Protocol: Antagonist activity was evaluated at a concentration of 10 μM for a representative subset of test compounds, and the results were expressed as the percent inhibition at that concentration.
Each test compound was evaluated at a single concentration of 10 μM. […] The results are expressed as a percent of control specific binding ((measured specific binding/control specific binding)×100) obtained in the presence of the test compounds.

[3] = read-out: percent inhibition at 10 μM
[4] = read-out: NK3, % inhibition @ 10 μM

T1 sequence (P29371 whole entry): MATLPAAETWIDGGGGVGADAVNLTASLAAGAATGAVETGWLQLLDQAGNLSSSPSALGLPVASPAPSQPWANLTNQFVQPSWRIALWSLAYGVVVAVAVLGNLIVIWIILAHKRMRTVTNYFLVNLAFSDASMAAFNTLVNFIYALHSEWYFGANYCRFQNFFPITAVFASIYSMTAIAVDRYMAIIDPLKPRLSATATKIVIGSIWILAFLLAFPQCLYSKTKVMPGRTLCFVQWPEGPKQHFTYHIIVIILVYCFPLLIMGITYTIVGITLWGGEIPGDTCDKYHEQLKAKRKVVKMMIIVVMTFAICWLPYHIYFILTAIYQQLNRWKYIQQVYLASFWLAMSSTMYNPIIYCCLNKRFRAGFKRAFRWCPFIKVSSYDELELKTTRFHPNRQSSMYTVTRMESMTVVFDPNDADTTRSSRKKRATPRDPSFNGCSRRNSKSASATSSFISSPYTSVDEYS

Structure (SMILES) | inhibition at 1 µM (human NK3 receptor [1]) | inhibition at 10 µM (human NK3 receptor [2]; [3]) | inhibition at 10 µM (human NK3 receptor [2]; [4])
CCOc1cc(C2NC(=O)NC(c3ccsc3)=C2c2ccccc2)cc([N+](=O)[O-])c1O (stereo not drawn) [4-(3-ethoxy-4-hydroxy-5-nitrophenyl)-5-phenyl-6-(thiophen-3-yl)-3,4-dihydropyrimidin-2(1H)-one] | – | > 50% | –
CCOc1cc(C2NC(=O)NC(c3cccnc3)=C2c2ccsc2)cc([N+](=O)[O-])c1O (stereo not drawn) [4-(3-ethoxy-4-hydroxy-5-nitrophenyl)-6-(pyridin-3-yl)-5-(thiophen-3-yl)-3,4-dihydropyrimidin-2(1H)-one] | – | > 50% | 63%
CCOc1cc(C2NC(=O)NC(c3ccccc3)=C2c2cccc(CC)c2)cc([N+](=O)[O-])c1O (stereo not drawn) [4-(3-ethoxy-4-hydroxy-5-nitrophenyl)-5-(3-ethylphenyl)-6-phenyl-3,4-dihydropyrimidin-2(1H)-one] | > 50% | – | –
CCOc1cc(C2NC(=O)NC(c3ccoc3)=C2c2ccccc2)cc([N+](=O)[O-])c1O (stereo not drawn) [4-(3-ethoxy-4-hydroxy-5-nitrophenyl)-6-(furan-3-yl)-5-phenyl-3,4-dihydropyrimidin-2(1H)-one] | – | > 50% | –
CCOc1cc(C2NC(=O)NC(c3ccccc3)=C2c2ccc(C)cc2)cc([N+](=O)[O-])c1O (stereo not drawn) [4-(3-ethoxy-4-hydroxy-5-nitrophenyl)-6-phenyl-5-p-tolyl-3,4-dihydropyrimidin-2(1H)-one] | > 50% | – | –
CCOc1cc(C2NC(=O)NC(c3ccccc3)=C2c2ccccc2C)cc([N+](=O)[O-])c1O (stereo not drawn) [4-(3-ethoxy-4-hydroxy-5-nitrophenyl)-6-phenyl-5-o-tolyl-3,4-dihydropyrimidin-2(1H)-one] | > 50% | – | –
CCOc1cc(C2NC(=O)NC(c3ccccc3)=C2c2ccccc2)cc([N+](=O)[O-])c1O (stereo not drawn) [4-(3-ethoxy-4-hydroxy-5-nitrophenyl)-5,6-diphenyl-3,4-dihydropyrimidin-2(1H)-one] | – | > 50% | 88%
CCOc1cc(C2NC(=O)NC(c3ccccc3)=C2c2ccccc2)cc(Br)c1O (stereo not drawn) [4-(3-bromo-5-ethoxy-4-hydroxyphenyl)-5,6-diphenyl-3,4-dihydropyrimidin-2(1H)-one] | > 50% | – | –
CCOc1cc(C2NC(=O)NC(c3ccn(C)n3)=C2c2ccsc2)cc([N+](=O)[O-])c1O (stereo not drawn) [4-(3-ethoxy-4-hydroxy-5-nitrophenyl)-6-(1-methyl-1H-pyrazol-3-yl)-5-(thiophen-3-yl)-3,4-dihydropyrimidin-2(1H)-one] | – | > 50% | 61%
COc1cc(C2NC(=O)NC(c3ccccc3)=C2c2ccccc2)cc([N+](=O)[O-])c1O (stereo not drawn) [4-(4-hydroxy-3-methoxy-5-nitrophenyl)-5,6-diphenyl-3,4-dihydropyrimidin-2(1H)-one] | > 50% | > 50% | –
CCOc1cc(C2NC(=O)NC(c3cccnc3)=C2c2ccccc2)cc([N+](=O)[O-])c1O (stereo not drawn) [4-(3-ethoxy-4-hydroxy-5-nitrophenyl)-5-phenyl-6-(pyridin-3-yl)-3,4-dihydropyrimidin-2(1H)-one] | – | > 50% | 92%
CCOc1cc(C2NC(=O)NC(c3ccccc3)=C2c2cccc(C#N)c2)cc([N+](=O)[O-])c1O (stereo not drawn) [3-(4-(3-ethoxy-4-hydroxy-5-nitrophenyl)-2-oxo-6-phenyl-1,2,3,4-tetrahydropyrimidin-5-yl)benzonitrile] | – | > 50% | –
CCOc1cc(C2NC(=O)NC(c3cccs3)=C2c2ccccc2)cc([N+](=O)[O-])c1O (stereo not drawn) [4-(3-ethoxy-4-hydroxy-5-nitrophenyl)-5-phenyl-6-(thiophen-2-yl)-3,4-dihydropyrimidin-2(1H)-one] | – | > 50% | –
N#Cc1cccc(C2NC(=O)NC(c3ccccc3)=C2c2ccccc2)c1O (stereo not drawn) [2-hydroxy-3-(2-oxo-5,6-diphenyl-1,2,3,4-tetrahydropyrimidin-4-yl)benzonitrile] | > 50% | – | –
CCOc1cc(C2NC(=O)NC(c3ccc(F)cc3)=C2c2ccccc2)cc([N+](=O)[O-])c1O (stereo not drawn) [4-(3-ethoxy-4-hydroxy-5-nitrophenyl)-6-(4-fluorophenyl)-5-phenyl-3,4-dihydropyrimidin-2(1H)-one] | > 50% | – | –
CCOc1cc(C2NC(=O)NC(c3ccccc3)=C2c2ccsc2)cc([N+](=O)[O-])c1O (stereo not drawn) [4-(3-ethoxy-4-hydroxy-5-nitrophenyl)-6-phenyl-5-(thiophen-3-yl)-3,4-dihydropyrimidin-2(1H)-one] | – | > 50% | 97%
CCOc1cc(C2NC(=O)NC(c3cnn(C)c3)=C2c2ccsc2)cc([N+](=O)[O-])c1O (stereo not drawn) [4-(3-ethoxy-4-hydroxy-5-nitrophenyl)-6-(1-methyl-1H-pyrazol-4-yl)-5-(thiophen-3-yl)-3,4-dihydropyrimidin-2(1H)-one] | – | > 50% | –
O=C1NC(c2ccccc2)=C(c2ccccc2)C(c2cc(Cl)c(O)c([N+](=O)[O-])c2)N1 (stereo not drawn) [4-(3-chloro-4-hydroxy-5-nitrophenyl)-5,6-diphenyl-3,4-dihydropyrimidin-2(1H)-one] | – | > 50% | –
CCOc1cc(C2NC(=O)NC(c3ccc(C(F)(F)F)cc3)=C2c2ccccc2)cc([N+](=O)[O-])c1O (stereo not drawn) [4-(3-ethoxy-4-hydroxy-5-nitrophenyl)-5-phenyl-6-(4-(trifluoromethyl)phenyl)-3,4-dihydropyrimidin-2(1H)-one] | > 50% | – | –
CCOc1cc(C2NC(=O)NC(c3ccccc3F)=C2c2ccccc2)cc([N+](=O)[O-])c1O (stereo not drawn) [4-(3-ethoxy-4-hydroxy-5-nitrophenyl)-6-(2-fluorophenyl)-5-phenyl-3,4-dihydropyrimidin-2(1H)-one] | > 50% | – | –
CCOc1cc(C2NC(=O)NC(c3ccccc3)=C2c2cccs2)cc([N+](=O)[O-])c1O (stereo not drawn) [4-(3-ethoxy-4-hydroxy-5-nitrophenyl)-6-phenyl-5-(thiophen-2-yl)-3,4-dihydropyrimidin-2(1H)-one] | – | > 50% | –
CCOc1cc(C2NC(=O)NC(c3ccccc3)=C2c2cccc(F)c2)cc([N+](=O)[O-])c1O (stereo not drawn) [4-(3-ethoxy-4-hydroxy-5-nitrophenyl)-5-(3-fluorophenyl)-6-phenyl-3,4-dihydropyrimidin-2(1H)-one] | > 50% | – | –
CCOc1cc(C2NC(=O)NC(c3ccccc3)=C2c2ccccc2)cc(F)c1O (stereo not drawn) [4-(3-ethoxy-5-fluoro-4-hydroxyphenyl)-5,6-diphenyl-3,4-dihydropyrimidin-2(1H)-one] | > 50% | – | –

The next lines start with the values.

inhibition at 1 µM (human NK3 receptor [1]) | inhibition at 10 µM (human NK3 receptor [2]; [3]) | inhibition at 10 µM (human NK3 receptor [2]; [4]) | Structure (SMILES)
> 50% | – | – | CCOc1cc(C2NC(=O)NC(c3ccccc3)=C2c2ccc(F)c(F)c2)cc([N+](=O)[O-])c1O (stereo not drawn) [5-(3,4-difluorophenyl)-4-(3-ethoxy-4-hydroxy-5-nitrophenyl)-6-phenyl-3,4-dihydropyrimidin-2(1H)-one]
> 50% | > 50% | – | CCOc1cc(C2NC(=O)NC(c3ccc(Cl)c(F)c3)=C2c2ccccc2)cc([N+](=O)[O-])c1O (stereo not drawn) [6-(4-chloro-3-fluorophenyl)-4-(3-ethoxy-4-hydroxy-5-nitrophenyl)-5-phenyl-3,4-dihydropyrimidin-2(1H)-one]
> 50% | – | – | CCOc1cc(C2NC(=O)NC(c3ccccc3)=C2c2ccccc2)cc2[nH]c(=O)oc12 (stereo not drawn) [7-ethoxy-5-(2-oxo-5,6-diphenyl-1,2,3,4-tetrahydropyrimidin-4-yl)benzo[d]oxazol-2(3H)-one]
> 50% | – | – | CCOc1cc(C2NC(=O)NC(C3CCCC3)=C2c2ccccc2)cc([N+](=O)[O-])c1O (stereo not drawn) [6-cyclopentyl-4-(3-ethoxy-4-hydroxy-5-nitrophenyl)-5-phenyl-3,4-dihydropyrimidin-2(1H)-one]
> 50% | – | – | CCOc1cc(C2NC(=O)NC(c3ccc(F)c(F)c3)=C2c2ccccc2)cc([N+](=O)[O-])c1O (stereo not drawn) [6-(3,4-difluorophenyl)-4-(3-ethoxy-4-hydroxy-5-nitrophenyl)-5-phenyl-3,4-dihydropyrimidin-2(1H)-one]
> 50% | – | – | CCOc1cc(C2NC(=O)NC(c3ccc(Cl)cc3)=C2c2ccccc2)cc([N+](=O)[O-])c1O (stereo not drawn) [6-(4-chlorophenyl)-4-(3-ethoxy-4-hydroxy-5-nitrophenyl)-5-phenyl-3,4-dihydropyrimidin-2(1H)-one]
> 50% | – | – | CCOc1cc(C2NC(=O)NC(c3ccc(F)c(Cl)c3)=C2c2ccccc2)cc([N+](=O)[O-])c1O (stereo not drawn) [6-(3-chloro-4-fluorophenyl)-4-(3-ethoxy-4-hydroxy-5-nitrophenyl)-5-phenyl-3,4-dihydropyrimidin-2(1H)-one]
> 50% | – | – | CCOc1cc(C2NC(=O)NC(c3cccc(Cl)c3)=C2c2ccccc2)cc([N+](=O)[O-])c1O (stereo not drawn) [6-(3-chlorophenyl)-4-(3-ethoxy-4-hydroxy-5-nitrophenyl)-5-phenyl-3,4-dihydropyrimidin-2(1H)-one]
> 50% | – | – | CCOc1cc(C2NC(=O)NC(c3ccccc3)=C2c2ccc(Cl)cc2)cc([N+](=O)[O-])c1O (stereo not drawn) [5-(4-chlorophenyl)-4-(3-ethoxy-4-hydroxy-5-nitrophenyl)-6-phenyl-3,4-dihydropyrimidin-2(1H)-one]
> 50% | – | – | O=C1NC(c2ccccc2)=C(c2ccccc2)C(c2ccc(O)c([N+](=O)[O-])c2)N1 (stereo not drawn) [4-(4-hydroxy-3-nitrophenyl)-5,6-diphenyl-3,4-dihydropyrimidin-2(1H)-one]
> 50% | – | – | CCOc1cc(C2NC(=O)NC(c3ccccc3)=C2c2ccccc2Cl)cc([N+](=O)[O-])c1O (stereo not drawn) [5-(2-chlorophenyl)-4-(3-ethoxy-4-hydroxy-5-nitrophenyl)-6-phenyl-3,4-dihydropyrimidin-2(1H)-one]
> 50% | – | – | CCOc1cc(C2NC(=O)NC(c3cc(F)cc(F)c3)=C2c2ccccc2)cc([N+](=O)[O-])c1O (stereo not drawn) [6-(3,5-difluorophenyl)-4-(3-ethoxy-4-hydroxy-5-nitrophenyl)-5-phenyl-3,4-dihydropyrimidin-2(1H)-one]

From patent US8906933B2, “Dihydropyrimidin-2(1H)-one compounds as neurokinin-3 receptor antagonists” (N30 Pharmaceuticals, Inc., priority 2010, dated 2014)
